Consider 8 compounds from patent US5124332A, “Substituted indoles as central nervous system agents” (Warner-Lambert Company, priority 1991, dated 1992).

The subject of experiment [1] is locomotor activity in mice. Nature of the experiment: Inhibition of locomotor activity in mice. The class given is in vivo. As to conditions: Mus musculus, read-out: Inhibition of Locomotor Activity in Mice ED50. The procedure: (§1) The compounds of Formula I are valuable dopaminergic agents. […] Thus, the compounds of Formula I were tested for their ability to inhibit locomotor activity in mice according to the assay described by J. R. McLean, et al, Pharmacology, Biochemistry and Behavior, Volume 8, pages 97-99 (1978); and for their ability to inhibit [^3 H]-spiroperidol binding in a receptor assay described by D. Grigoriadis and P. Seman, Journal of Neurochemistry, Volume 44, pages 1925-1935 (1985). The above test methods are incorporated herein by reference. The data in the table show the dopaminergic activity of representative compounds of Formula I.

In experiment [2] the target is T1, [^3 H]-spiroperidol binding (Homo sapiens, UniProt P14416).
T1 construct: from tissue; own knowledge of the cited 1985 method, which predates the cloning of D2)
Briefly: Inhibition of [^3 H]-spiroperidol binding in a receptor assay. As for the experimental part: as §1

Where [3] appears, read: [^3 H]spiroperidol, receptor assay, read-out: Inhibition of [^3 H]Spiroperidol Binding IC50.

Each structure is given as a SMILES string. Where a name gives a salt, the structure may show the parent alone. Read-outs that look alike come from different tables or passages of the source.

T1 sequence (P14416 whole entry): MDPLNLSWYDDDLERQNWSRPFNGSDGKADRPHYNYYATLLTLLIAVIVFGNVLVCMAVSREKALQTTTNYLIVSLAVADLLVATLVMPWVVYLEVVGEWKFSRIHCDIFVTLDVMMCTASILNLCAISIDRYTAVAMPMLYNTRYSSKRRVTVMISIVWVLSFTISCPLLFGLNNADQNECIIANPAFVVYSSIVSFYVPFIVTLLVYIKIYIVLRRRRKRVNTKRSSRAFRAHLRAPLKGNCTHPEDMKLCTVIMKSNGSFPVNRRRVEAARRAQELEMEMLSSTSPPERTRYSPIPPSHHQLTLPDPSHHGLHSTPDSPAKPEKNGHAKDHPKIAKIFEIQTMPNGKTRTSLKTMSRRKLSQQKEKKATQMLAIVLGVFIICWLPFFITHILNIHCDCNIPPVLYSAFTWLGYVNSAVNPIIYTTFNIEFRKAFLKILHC

By ED50 is commonly meant the dose at which the effect has come halfway, by size or by number of responders. The IC50 is the concentration that gives 50% inhibition. Turning to `C1=C(c2ccccc2)CCN(CC[C@H]2CC[C@@H](c3c[nH]c4ccccc43)CC2)C1` [Example 6, Cis 3-[4-[2-(3,6-dihydro-4-phenyl-1(2H)-pyridinyl)ethyl]cyclohexyl]-1H-indole], the ED50 in experiment [1] (ip) came out at 16.6 mg/kg. The IC50 in experiment [2] is 39.3 nM.
As for `C1=C(c2cccs2)CCN(CC[C@H]2CC[C@H](c3c[nH]c4ccccc43)CC2)C1` [Example 7, Trans 3-[4-[2-(3,6-dihydro-4-(2-thienyl)-1(2H)-pyridinyl)ethyl]cyclohexyl]-1H-indole], the ED50 in experiment [1] (ip) worked out at 11.7 mg/kg. Moreover, the IC50 in experiment [2] (setting [3]) was determined as 878 nM.
Turning to `c1cnc(N2CCN(CC[C@H]3CC[C@H](c4c[nH]c5ccccc54)CC3)CC2)nc1` [Example 3, Trans 3-[4-[2-[4-(2-pyrimidinyl)-1-piperazinyl]ethyl]cyclohexyl]-1H-indole,hydrochloride], the ED50 in experiment [1] (mice, IP) stood at 3.3 mg/kg. In experiment [2] (setting [3]), the IC50 was determined as 224 nM.
The matching figures for `C1=C(c2c[nH]c3ccccc23)CCC(CCN2CCN(c3ccccn3)CC2)C1` (stereo not shown) [Example 16]: 6.25 mg/kg and 270 nM.
Take `c1ccc(N2CCN(CC[C@H]3CC[C@@H](c4c[nH]c5ccccc54)CC3)CC2)nc1` [Example 2, Cis 3-[4-[2-[4-(2-pyridinyl)-1-piperazinyl]ethyl]cyclohexyl]-1H-indole]: the ED50 in experiment [1] (mice, IP) amounted to 4.7 mg/kg. In addition, the IC50 in experiment [2] (setting [3]) came to 193 nM.
In the case of `C1=C(c2ccccc2)CCN(CC[C@H]2CC[C@H](c3c[nH]c4ccccc43)CC2)C1` [Example 5, Trans 3-[4-[2-(3,6-dihydro-4-phenyl-1(2H)-pyridinyl)ethyl]cyclohexyl]-1H-indole], the ED50 in experiment [1] (ip) worked out at 9 mg/kg. The compound further gave an IC50 in experiment [2] of 12.1 nM.
Regarding `c1ccc(N2CCN(CC[C@H]3CC[C@H](c4c[nH]c5ccccc54)CC3)CC2)nc1` [Example 1, trans 3-[4-[2-[4-(2-pyridinyl)-1-piperazinyl]ethyl]cyclohexyl]-1H-indole], the ED50 in experiment [1] (mice, IP) amounted to 1.4 mg/kg. Also, the IC50 in experiment [2] (setting [3]) worked out at 69.8 nM.
In the case of `c1cnc(N2CCN(CC[C@H]3CC[C@@H](c4c[nH]c5ccccc54)CC3)CC2)nc1` [Example 4, Cis 3-[4-[2-[4-(2-pyrimidinyl)-1-piperazinyl]ethyl]cyclohexyl]-1H-indole, hydrochloride], in experiment [1] (mice, IP), the ED50 was 8.6 mg/kg. Further, in experiment [2] (setting [3]), the IC50 came to 349 nM.
